Data reported in paper PMC3433708, “Structural Basis for Specific Recognition of Substrates by Sapovirus Protease” (Frontiers in Microbiology, 2012).
pIC50: −log10 of the molar value.

target: T1, SaV protease (3C-like protease domain of NS6-7, Pro^wt) (Sapovirus Mc10, UniProt Q6XDK8); experiment: in vitro trans cleavage assay, […]-labelled ORF1 polyprotein (Pro^mut), SDS-PAGE, NS4-NS5 band; assay type: biochemical
T1 construct: gene ORF1; partial ORF1 polyprotein NS6-7-VP1 with functional protease, made by coupled in vitro transcription/translation in rabbit reticulocyte lysate, not purified; protease domain 146 residues; from ORF1 polyprotein of 2278 residues
T1 sequence (Q6XDK8 1056-1201): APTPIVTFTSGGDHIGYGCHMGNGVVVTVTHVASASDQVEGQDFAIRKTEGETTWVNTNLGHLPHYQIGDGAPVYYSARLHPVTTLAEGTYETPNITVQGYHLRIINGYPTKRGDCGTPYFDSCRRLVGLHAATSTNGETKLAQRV

Compound | pIC50
CN(C)c1ccc(/C=C2\CCCC3C2=NN(C(=O)CCC(=O)O)C3c2ccc(N(C)C)cc2)cc1 (stereo not drawn) [compound 50, Compound No.50] | 4.58
Cc1cccc(N2CCN(c3ccc(C(=O)O)cc3NS(=O)(=O)c3cc(C)cc(C)c3)CC2C)c1 (stereo not drawn) [compound 100, Compound No.100] | 4.74
Cc1ccc(C)n1C(CC(=O)O)c1ccc(OCc2ccccc2)cc1 (stereo not drawn) [compound 116, Compound No.116] | 4.74
